The record followed here is BindingDB's records for doi:10.1021/jm030233b (Pharmacia, 2003).

A word on the IC50: it is the point on the concentration scale where inhibition reaches its midpoint. Low readings indicate higher potency, high ones lower potency.

Structures are written as SMILES. Some results are limits rather than exact numbers.

For the assay, the target named is Prothrombin (Homo sapiens, UniProt P00734). In words: Thrombin Assay. Conditions: pH 8; 22 °C.

Procedure: Human thrombin and substrate were added to a 96-well assay plate containing inhibitor in reaction buffer. […] All compounds were assayed in duplicate at seven concentrations. Percent inhibition at each concentration was calculated from OD405nm value from the experimental and control sample. IC50 values were calculated from a four-parameter logistic regression equation.

Turning to `N=C(N)c1ccc(CNC(=O)Cc2c(-c3cccc(N)c3)ccc(NCc3ccccc3)c2F)cc1` [2-[6-(3-aminophenyl)-3-(benzylamino)-2-fluorophenyl]-N-[(4-carbamimidoylphenyl)methyl]acetamide], the 50% inhibitory concentration (IC50) was 10 µM.

With `N=C(N)c1ccc(CNC(=O)Cc2c(F)ccc(NS(=O)(=O)Cc3ccccc3)c2F)cc1` [N-[(4-carbamimidoylphenyl)methyl]-2-[2,6-difluoro-3-(phenylmethanesulfonamido)phenyl]acetamide], half-maximal inhibition (IC50) required 26.9 µM. For `CC(C)=Nc1cc(O)c(-c2ccccc2)c(CC(=O)NCc2ccc(C(=N)N)cc2)c1O` [N-[(4-carbamimidoylphenyl)methyl]-2-[3,6-dioxo-2-phenyl-5-(propan-2-ylamino)cyclohexa-1,4-dien-1-yl]acetamide] the value was greater than 30 µM.

`N=C(N)c1ccc(CNC(=O)Cc2c(F)ccc(NCCc3ccccc3)c2F)cc1` [N-[(4-carbamimidoylphenyl)methyl]-2-{2,6-difluoro-3-[(2-phenylethyl)amino]phenyl}acetamide] yielded an IC50 of 1.56 µM.

For `N=C(N)c1ccc(CNC(=O)Cc2c(-c3ccccc3)ccc(NCCc3ccccc3)c2O)cc1` [N-[(4-carbamimidoylphenyl)methyl]-2-{2-hydroxy-6-phenyl-3-[(2-phenylethyl)amino]phenyl}acetamide], the 50% inhibitory concentration (IC50) amounted to 6.8 µM.
